Measurements reported in patent publication US20240217978A1 (CHONG KUN DANG PHARMACEUTICAL CORP., priority 2021, published 2024).

Target: human adenosine A2a receptor (Homo sapiens (Human), UniProt P29274)
Test: A2a receptor binding affinity, [3H]-NECA radioligand binding test
Details: [3H]-NECA 37 nM; membrane from HEK-293 cells transfected with human adenosine A2a receptor
Outline: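 IC50 values (μM) come from displacement of [3H]-NECA, used at 37 nM final, on human A2a receptor membranes from transfected HEK-293 cells. Incubation lasted one hour at room temperature in Tris/MgCl2/EDTA buffer, pH 7.4; filter-bound radioactivity was counted by scintillation.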

human adenosine A2a receptor, sequence (P29274 whole entry): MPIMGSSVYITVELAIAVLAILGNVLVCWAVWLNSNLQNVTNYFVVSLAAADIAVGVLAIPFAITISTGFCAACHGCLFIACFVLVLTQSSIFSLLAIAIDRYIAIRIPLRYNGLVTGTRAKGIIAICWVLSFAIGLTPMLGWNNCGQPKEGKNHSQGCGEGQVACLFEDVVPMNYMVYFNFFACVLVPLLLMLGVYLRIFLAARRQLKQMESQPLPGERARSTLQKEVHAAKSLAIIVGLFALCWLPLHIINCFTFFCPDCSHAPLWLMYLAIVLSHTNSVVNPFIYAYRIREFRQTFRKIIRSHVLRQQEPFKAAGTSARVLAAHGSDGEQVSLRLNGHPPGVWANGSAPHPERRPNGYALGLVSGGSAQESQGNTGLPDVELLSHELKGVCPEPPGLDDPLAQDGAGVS

IC50 [nM] | Structure (SMILES)
0.9 | Nc1nc(N2CCC[C@H]2C(=O)N2CCN(CC(F)(F)C(F)F)CC2)nc2sc(-c3ccco3)nc12 [Example 260, (S)-(1-(7-amino-2-(furan-2-yl)thiazolo[5,4-d]pyrimidin-5-yl)pyrrolidin-2-yl)(4-(2,2,3,3-tetrafluoropropyl)piperazin-1-yl)methanone]
12 | Nc1nc(N2CCC[C@H]2C(=O)N2CCN(CC3(C(F)(F)F)CC3)CC2)nc2nc(-c3ccco3)nn12 [Example 283, (S)-(1-(7-amino-2-(furan-2-yl)-[1,2,4]triazolo[1,5-a][1,3,5]triazin-5-yl)pyrrolidin-2-yl)(4-((1-(trifluoromethyl)cyclopropyl)methyl)piperazin-1-yl)methanone]
10 | CCCCN1CCN(C(=O)[C@@H](Nc2nc(N)n3nc(-c4ccco4)nc3n2)C2CCCCC2)CC1 [Example 187, (S)-2-((7-amino-2-(furan-2-yl)-[1,2,4]triazolo[1,5-a][1,3,5]triazin-5-yl)amino)-1-(4-butylpiperazin-1-yl)-2-cyclohexylethan-1-one]
19 | C[C@H](Nc1nc(N)n2nc(-c3ccco3)nc2n1)C(=O)N1CCN(CC(F)(F)C(F)F)CC1 [Example 318, (S)-2-((7-amino-2-(furan-2-yl)-[1,2,4]triazolo[1,5-a][1,3,5]triazin-5-yl)amino)-1-(4-(2,2,3,3-tetrafluoropropyl)piperazin-1-yl)propan-1-one]
14 | CC(C)[C@H](Nc1nc(N)n2nc(-c3ccco3)nc2n1)C(=O)N1CCN(CC(F)(F)F)CC1 [Example 144, (S)-2-((7-amino-2-(furan-2-yl)-[1,2,4]triazolo[1,5-a][1,3,5]triazin-5-yl)amino)-3-methyl-1-(4-(2,2,2-trifluoroethyl)piperazin-1-yl)butan-1-one]
9 | Nc1nc(N2CCC[C@H]2C(=O)N2CCN(S(=O)(=O)CC3CC3)CC2)nc2nc(-c3ccco3)nn12 [Example 68, (S)-(1-(7-amino-2-(furan-2-yl)-[1,2,4]triazolo[1,5-a][1,3,5]triazin-5-yl)pyrrolidin-2-yl)(4-((cyclopropylmethyl)sulfonyl)piperazin-1-yl)methanone]
7 | Nc1nc(N2CCC[C@H]2C(=O)N2CCN(CC3(F)CCOCC3)CC2)nc2nc(-c3ccco3)nn12 [Example 389, (S)-(1-(7-amino-2-(furan-2-yl)-[1,2,4]triazolo[1,5-a][1,3,5]triazin-5-yl)pyrrolidin-2-yl)(4-((4-fluorotetrahydro-2H-pyran-4-yl)methyl)piperazin-1-yl)methanone]
3 | COCCN1CCN(C(=O)[C@@H]2CCCN2c2nc(N)n3nc(-c4ccco4)nc3n2)CC1=O [Example 246, 4-((7-amino-2-(furan-2-yl)-[1,2,4]triazolo[1,5-a][1,3,5]triazin-5-yl)-L-prolyl)-1-(2-methoxyethyl)piperazin-2-one]
18 | CC(C)(F)CN1CCN(C(=O)[C@@H](Nc2nc(N)n3nc(-c4ccco4)nc3n2)C2CC2)CC1 [Example 339, (S)-2-((7-amino-2-(furan-2-yl)-[1,2,4]triazolo[1,5-a][1,3,5]triazin-5-yl)amino)-2-cyclopropyl-1-(4-(2-fluoro-2-methylpropyl)piperazin-1-yl)ethan-1-one]
4 | Nc1nc(N[C@H](C(=O)N2CCN(c3ccc(F)cc3F)CC2)C2CC2)nc2nc(-c3ccco3)nn12 [Example 168, (S)-2-((7-amino-2-(furan-2-yl)-[1,2,4]triazolo[1,5-a][1,3,5]triazin-5-yl)amino)-2-cyclopropyl-1-(4-(2,4-difluorophenyl)piperazin-1-yl)ethan-1-one]
8 | Nc1nc(N2CCCC[C@H]2C(=O)N2CCN(Cc3ccc(F)cc3F)CC2)nc2nc(-c3ccco3)nn12 [Example 29, (S)-(1-(7-amino-2-(furan-2-yl)-[1,2,4]triazolo[1,5-a][1,3,5]triazin-5-yl)piperidin-2-yl)(4-(2,4-difluorobenzyl)piperazin-1-yl)methanone]
8 | CC(C)(F)CN1CCN(C(=O)[C@H](Cc2ccccc2)Nc2nc(N)n3nc(-c4ccco4)nc3n2)CC1 [Example 28, (S)-2-((7-amino-2-(furan-2-yl)-[1,2,4]triazolo[1,5-a][1,3,5]triazin-5-yl)amino)-1-(4-(2-fluoro-2-methylpropyl)piperazin-1-yl)-3-phenylpropan-1-one]
4 | CC(C)N1CCN(C(=O)[C@@H]2CCCN2c2nc(N)n3nc(-c4ccco4)nc3n2)CC1 [Example 136, (S)-(1-(7-amino-2-(furan-2-yl)-[1,2,4]triazolo[1,5-a][1,3,5]triazin-5-yl)pyrrolidin-2-yl)(4-isopropylpiperazin-1-yl)methanone]
14 | CC(C)[C@H](Nc1nc(N)n2nc(-c3ccco3)nc2n1)C(=O)N1CCN(CCC(F)(F)F)CC1 [Example 367, (S)-2-((7-amino-2-(furan-2-yl)-[1,2,4]triazolo[1,5-a][1,3,5]triazin-5-yl)amino)-3-methyl-1-(4-(3,3,3-trifluoropropyl)piperazin-1-yl)butan-1-one]
8 | CC(C)(F)CN1CCN(C(=O)[C@@H]2CC3(CC3)CN2c2nc(N)n3nc(-c4ccco4)nc3n2)CC1 [Example 386, (S)-(5-(7-amino-2-(furan-2-yl)-[1,2,4]triazolo[1,5-a][1,3,5]triazin-5-yl)-5-azaspiro[2.4]heptan-6-yl)(4-(2-fluoro-2-methylpropyl)piperazin-1-yl)methanone]
0.5 | CCOC(=O)c1ccc(N2CCN(C(=O)[C@@H]3CCCN3c3nc(N)n4nc(-c5ccco5)nc4n3)CC2)cc1 [Example 123, Ethyl 4-(4-((7-amino-2-(furan-2-yl)-[1,2,4]triazolo[1,5-a][1,3,5]triazin-5-yl)-L-prolyl)piperazin-1-yl)benzoate]
3 | Nc1nc(N2CCC[C@H]2C(=O)N2CCN(C(=O)c3cscn3)CC2)nc2nc(-c3ccco3)nn12 [Example 105]
15 | COCCOCCN1CCN(C(=O)[C@@H]2CCCN2c2nc(N)n3nc(-c4ccco4)nc3n2)CC1 [Example 141, (S)-(1-(7-amino-2-(furan-2-yl)-[1,2,4]triazolo[1,5-a][1,3,5]triazin-5-yl)pyrrolidin-2-yl)(4-(2-(2-methoxyethoxy)ethyl)piperazin-1-yl)methanone]
0.4 | Nc1nc(N2CCC[C@H]2C(=O)N2CCN(C(=O)C3(C(F)(F)F)CCCCC3)CC2)nc2nc(-c3ccco3)nn12 [Example 77]
12 | CC(C)(O)CC(=O)N1CCN(C(=O)[C@@H]2CCCN2c2nc(N)n3nc(-c4ccco4)nc3n2)CC1 [Example 229, 1-(4-((7-amino-2-(furan-2-yl)-[1,2,4]triazolo[1,5-a][1,3,5]triazin-5-yl)-L-prolyl)piperazin-1-yl)-3-hydroxy-3-methylbutan-1-one]
9 | Nc1nc(N[C@H](C(=O)N2CCC(N3CC(F)(F)C3)CC2)C2CCCCC2)nc2nc(-c3ccco3)nn12 [Example 186, (S)-2-((7-amino-2-(furan-2-yl)-[1,2,4]triazolo[1,5-a][1,3,5]triazin-5-yl)amino)-2-cyclohexyl-1-(4-(3,3-difluoroazetidin-1-yl)piperidin-1-yl)ethan-1-one]
4 | CC(C)(F)CN1CCN(C(=O)[C@@H]2CCCN2c2nc(N)n3nc(-c4ccco4)nc3n2)CC1 [Example 26, (S)-(1-(7-amino-2-(furan-2-yl)-[1,2,4]triazolo[1,5-a][1,3,5]triazin-5-yl)pyrrolidin-2-yl)(4-(2-fluoro-2-methylpropyl)piperazin-1-yl)methanone]
86 | CN1CCN(C(=O)[C@@H]2CCCN2c2nc(N)n3nc(-c4ccco4)nc3n2)CC1 [Example 134, (S)-(1-(7-amino-2-(furan-2-yl)-[1,2,4]triazolo[1,5-a][1,3,5]triazin-5-yl)pyrrolidin-2-yl)(4-methylpiperazin-1-yl)methanone]
9 | CC(C)(O)CN1CCN(C(=O)[C@@H]2CCN2c2nc(N)n3nc(-c4ccco4)nc3n2)CC1 [Example 350, (S)-(1-(7-amino-2-(furan-2-yl)-[1,2,4]triazolo[1,5-a][1,3,5]triazin-5-yl)azetidin-2-yl)(4-(2-hydroxy-2-methylpropyl)piperazin-1-yl)methanone]
25 | CCCCN1CCC(C2CCN(C(=O)[C@@H]3CCN3c3nc(N)n4nc(-c5ccco5)nc4n3)CC2)CC1 [Example 328, (S)-(1-(7-amino-2-(furan-2-yl)-[1,2,4]triazolo[1,5-a][1,3,5]triazin-5-yl)azetidin-2-yl)(1′-butyl-[4,4′-bipiperidin]-1-yl)methanone]
0.3 | CCCC[C@H](Nc1nc(N)n2nc(-c3ccco3)nc2n1)C(=O)N1CCN(c2ccc(F)cc2F)CC1 [Example 164, (S)-2-((7-amino-2-(furan-2-yl)-[1,2,4]triazolo[1,5-a][1,3,5]triazin-5-yl)amino)-1-(4-(2,4-difluorophenyl)piperazin-1-yl)hexan-1-one]
17 | Cc1ccc(-c2nc3nc(N4CCC[C@H]4C(=O)N4CCN(CC(F)(F)F)CC4)nc(N)n3n2)o1 [Example 89, (S)-(1-(7-amino-2-(5-methylfuran-2-yl)-[1,2,4]triazolo[1,5-a][1,3,5]triazin-5-yl)pyrrolidin-2-yl)(4-(2,2,2-trifluoroethyl)piperazin-1-yl)methanone]
4 | CCc1cccc(NC(=O)C2CCN(C(=O)[C@@H]3CCCN3c3nc(N)n4nc(-c5ccco5)nc4n3)CC2)c1 [Example 131, 1-((7-amino-2-(furan-2-yl)-[1,2,4]triazolo[1,5-a][1,3,5]triazin-5-yl)-L-prolyl)-N-(3-ethylphenyl)piperidin-4-carboxamide]

Structure (SMILES) | IC50 [nM]
Nc1nc(N2CCC[C@H]2C(=O)N2CC3CCC(C2)N3C(=O)Nc2ccccc2)nc2nc(-c3ccco3)nn12 [Example 179, 3-((7-amino-2-(furan-2-yl)-[1,2,4]triazolo[1,5-a][1,3,5]triazin-5-yl)-L-prolyl)-N-phenyl-3,8-diazabicyclo[3.2.1]octane-8-carboxamide] | 5
